# Data published in patent publication US8815919B2, “Oxadiazole derivatives” (Merck Serono SA, priority 2009, dated 2014).
# pEC50: −log10 of the molar value. Where a name gives a salt, the structure may show the parent alone. Read-outs that look alike come from different tables or passages of the source.
# How the values were obtained:
# S1P1 [1] = molecular target: T1, S1P1 (Homo sapiens, UniProt P21453); experiment: 35S-GTPγS binding on membranes of CHO cells expressing S1P1; format: biochemical; conditions: read-out: S1P1/GTPG EC50
# Description: (§1) Membranes were prepared from CHO cells expressing S1P1 or S1P3 for use in ligand and […] binding studies. Cells were suspended in 50 mM TRIS, pH 7.4, 2 mM EDTA, 250 mM Sucrose (buffer A) and 1× Complete protease inhibitor cocktail (Roche), and disrupted at 4° C. by N2 decompression using a cell disruption bomb (Parr Instrument). Following centrifugation at 1000 RPM for 10 min at 4° C., the supernatant was diluted (2×) in buffer A and centrifuged again at 19000 RPM for 75 min at 4° C. The pellet was then suspended in 10 mM HEPES, pH 7.4, 1 mM EDTA, 250 mM Sucrose (Buffer B), and 1× Complete EDTA-free protease inhibitor cocktail and homogenized using a potter. Membranes were flash frozen in liquid N2 and stored at −80° C.
# (§2) Membranes (1 to 10 μg protein) prepared as described above, were incubated in 96-well Scintiplates (PerkinElmer) with test compounds diluted in DMSO, in 140 μl of 20 mM HEPES, pH 7.4, 10 mM MgCl2, 2 μg/well Saponin, 0.2% fatty acid free BSA (Assay buffer), 125 mM NaCl and 1.5 μM GDP. The assay was initiated with the addition of 60 μl of 1.5 nM [35S]-GTPγS (1100 Ci/mmol; GE Healthcare) in assay buffer. After 60 min incubation at 30° C. on a shaker, plates were centrifuged for 10 min at 2000 RPM. Supernatant was discarded and membrane bound radioactivity was measured on a PerkinElmer 1450 MicroBeta counter. Triplicate samples were averaged and expressed as % response relative to S1P activation in absence of compound (n=2).
# (§3) The “potency” or the “activity” of the compounds is determined by the EC50 values as evaluated in the above described 35S-GTPγS binding assay.
# Target sequence in this assay (P21453 whole entry, species assumed): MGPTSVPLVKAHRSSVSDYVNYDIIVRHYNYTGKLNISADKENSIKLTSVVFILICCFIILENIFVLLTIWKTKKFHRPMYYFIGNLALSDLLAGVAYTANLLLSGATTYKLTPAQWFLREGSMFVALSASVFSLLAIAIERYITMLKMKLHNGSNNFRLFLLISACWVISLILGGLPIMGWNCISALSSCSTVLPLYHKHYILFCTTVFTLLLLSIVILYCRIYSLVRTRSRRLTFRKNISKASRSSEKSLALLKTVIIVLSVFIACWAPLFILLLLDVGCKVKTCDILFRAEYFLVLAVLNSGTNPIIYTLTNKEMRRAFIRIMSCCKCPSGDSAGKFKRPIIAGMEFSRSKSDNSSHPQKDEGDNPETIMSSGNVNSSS
# S1P1 [2] = molecular target: T1, S1P1; experiment: Receptor binding assay, [33P]sphingosine 1-phosphate competition, S1P1 membranes, WGA SPA beads
# How it was run: (§4)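 Competition of [33P]S1P ([…]) on CHO cell membranes with WGA SPA beads in 50 mM HEPES pH 7.5, 5 mM MgCl2, 100 mM NaCl, 0.4% fatty acid-free BSA; 60 min at RT. Triplicates normalised to total binding and nonspecific binding (1000-fold excess unlabeled S1P).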
# Target sequence in this assay (P21453 whole entry, species assumed): as above
# S1P3 [3] = molecular target: T2, S1P3 (Homo sapiens, UniProt Q99500); experiment: 35S-GTPγS binding on membranes of CHO cells expressing S1P3; format: biochemical; conditions: read-out: S1P3/GTPG EC50
# T2 sequence (Q99500 whole entry, species assumed): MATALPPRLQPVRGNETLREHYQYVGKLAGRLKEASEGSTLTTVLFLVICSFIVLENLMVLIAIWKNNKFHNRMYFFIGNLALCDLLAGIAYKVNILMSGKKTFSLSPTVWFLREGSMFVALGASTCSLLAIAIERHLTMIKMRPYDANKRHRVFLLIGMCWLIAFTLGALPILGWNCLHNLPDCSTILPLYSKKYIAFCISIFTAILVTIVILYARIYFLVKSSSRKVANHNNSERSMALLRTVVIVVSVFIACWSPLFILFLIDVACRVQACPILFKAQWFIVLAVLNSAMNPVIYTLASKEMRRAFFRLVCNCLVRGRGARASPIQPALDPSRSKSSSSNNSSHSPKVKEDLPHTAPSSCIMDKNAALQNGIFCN
# Description: as §1, §2, §3
# S1P1 [4] = molecular target: T1, S1P1; experiment: S1P1 internalization assay in S1P1-U2OS cells (S1P1-EGFP), cell imaging; format: cell-based; parameters: host or cells: U2OS (human bone osteosarcoma epithelial cells), CMV promoter, geneticin selection; conditions: 1 hour incubation
# How it was run: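 U2OS cells stably expressing human S1P1-EGFP, plated overnight in 1% FCS medium, then serum-starved 2 h in 0.1% fatty-acid-free BSA before 1 h compound exposure at 37 °C. After PFA fixation and Hoechst staining, internalization imaged as EGFP spot count per nucleus.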
# Target sequence in this assay (P21453 whole entry): as the sequence (P21453 whole entry, species assumed) above
# S1P3 [5] = molecular target: T2, S1P3; experiment: Receptor binding assay, [33P]sphingosine 1-phosphate competition, S1P3 membranes, WGA SPA beads
# How it was run: as §4
# [6] = 96 well-plate, read-out: S1P1 binding Ki (M) (96 well-plate)
# [7] = 384 well-plate, read-out: S1P1 binding Ki (M) (384 well-plate)
# [8] = 384 well-plate, read-out: S1P3 binding Ki (M) (384 well-plate)
# [9] = 96 well-plate, read-out: S1P3 binding Ki (M) (96 well-plate)
Compound,pEC50 (S1P1 [1]),Ki (S1P1 [2]; [6]),pEC50 (S1P3 [3]),pEC50 (S1P1 [4]),Ki (S1P1 [2]; [7]),Ki (S1P3 [5]; [8]),Ki (S1P3 [5]; [9])
"COCc1cc(-c2nc(-c3cccc(COCCC(=O)O)c3)no2)ccc1-c1ccccc1C [Example 7, 3-[(3-{5-[2-(methoxymethyl)-2′-methylbiphenyl-4-yl]-1,2,4-oxadiazol-3-yl}benzyl)oxy]propanoic acid]",8.09,3.29e-09 M,5.70,7.59,,,
"COCc1cc(-c2nc(-c3ccc(C(=O)NCC(O)CO)c(F)c3)no2)ccc1-c1ccccc1C (stereo not shown) [Example 27, N-(2,3-dihydroxypropyl)-2-fluoro-4-{5-[2-(methoxymethyl)-2′-methylbiphenyl-4-yl]-1,2,4-oxadiazol-3-yl}benzamide]",7.75,,,,,,
"COCc1cc(-c2nc(-c3cccc(CC(=O)NCCNC(C)=O)c3)no2)ccc1-c1ccccc1C [Example 25, N-[2-(acetylamino)ethyl]-2-(3-{5-[2-(methoxymethyl)-2′-methylbiphenyl-4-yl]-1,2,4-oxadiazol-3-yl}phenyl)acetamide]",8.15,8.51e-10 M,6.20,,,,
"CCc1ccccc1-c1ccc(-c2nc(-c3ccc(C(=O)NCCC(=O)O)c(F)c3)no2)cc1COC [Example 16, N-(4-{5-[2′-ethyl-2-(methoxymethyl)biphenyl-4-yl]-1,2,4-oxadiazol-3-yl}-2-fluorobenzoyl)-beta-alanine]",8.22,2.22e-09 M,6.27,,,,
"COCc1cc(-c2nc(-c3cccc(COCCC(=O)O)c3)no2)ccc1N1CCCCC1C (stereo not shown) [Example 9, 3-[4(3-{5-[3-(methoxymethyl)-4-(2-methylpiperidin-1-yl)phenyl]-1,2,4-oxadiazol-3-yl}benzyl)oxy]propanoic acid, hydrochloride salt]",8.41,8.04e-10 M,,,,,
"COCc1cc(-c2nc(-c3ccc(C(=O)NCCC(=O)O)c(Cl)c3)no2)ccc1-c1ccccc1C [Example 15, N-(2-chloro-4-{5-[2-(methoxymethyl)-2′-methylbiphenyl-4-yl]-1,2,4-oxadiazol-3-yl}benzoyl)-beta-alanine]",7.68,1.06e-09 M,6.26,,,,
"COCc1cc(-c2nc(-c3ccc(C(=O)NCCC(=O)O)c(F)c3)no2)ccc1N1CCCCC1C (stereo not drawn) [Example 3, N-(2-fluoro-4-{5-[3-(methoxymethyl)-4-(2-methylpiperidin-1-yl)phenyl]-1,2,4-oxadiazol-3-yl}benzoyl)-beta-alanine]",8.07,8.32e-10 M,,8.11,,,
"CCC1CCCCN1c1ccc(-c2nc(-c3cccc(CN(C)CC(=O)O)c3)no2)cc1COC (stereo not shown) [Example 17, N-(3-{5-[4-(2-ethylpiperidin-1-yl)-3-(methoxymethyl)phenyl]-1,2,4-oxadiazol-3-yl}benzyl)-N-methylglycine, hydrochloride salt]",8.85,4.46e-10 M,6.59,,,,
"COCc1cc(-c2nc(-c3cc(F)c(F)c(OCCCC(=O)O)c3)no2)ccc1-c1ccccc1C [Example 5, 4-(2,3-difluoro-5-{5-[2-(methoxymethyl)-2′-methylbiphenyl-4-yl]-1,2,4-oxadiazol-3-yl}phenoxy)butanoic acid]",7.64,4.09e-09 M,,6.80,1.45e-08 M,,
"CCc1ccccc1-c1ccc(-c2nc(-c3cccc(CNCCC(=O)O)c3)no2)cc1COC [Example 18, N-(3-{5-[2′-ethyl-2-(methoxymethyl)biphenyl-4-yl]-1,2,4-oxadiazol-3-yl}benzyl)-beta-alanine, hydrochloride salt]",9.33,1.68e-10 M,8.30,,,,
"COCc1cc(-c2nc(-c3cccc(CC(=O)NCC(=O)O)c3)no2)ccc1-c1ccccc1C [Example 26, N-[(3-{5-[2-(methoxymethyl)-2′-methylbiphenyl-4-yl]-1,2,4-oxadiazol-3-yl}phenyl)acetyl]glycine]",7.97,,,,,,
"COCc1cc(-c2nc(-c3cccc(CN(C)CCC(=O)O)c3)no2)ccc1N1CCCCC1C (stereo not drawn) [Example 2, N-(3-{5-[3-(methoxymethyl)-4-(2-methylpiperidin-1-yl)phenyl]-1,2,4-oxadiazol-3-yl}benzyl)-N-methyl-beta-alanine, hydrochloride salt]",9.54,1.36e-10 M,7.35,,,,
"COCc1cc(-c2nc(-c3cccc(NCC(O)CO)c3)no2)ccc1-c1ccccc1C (stereo not shown) [Example 22, 3-[(3-{5-[2-(methoxymethyl)-2′-methylbiphenyl-4-yl]-1,2,4-oxadiazol-3-yl}phenyl)amino]propane-1,2-diol]",,7.11e-10 M,6.53,,,,
"Cc1ccccc1-c1ccc(-c2nc(-c3cccc(S(C)(=O)=O)c3)no2)cc1CN(C)C [Example 8, N,N-dimethyl-1-(2′-methyl-4-{3-[3-(methylsulfonyl)phenyl]-1,2,4-oxadiazol-5-yl}biphenyl-2-yl)methanamine]",7.93,,,,,,
"COCc1cc(-c2nc(-c3cccc(COCC(=O)O)c3)no2)ccc1N1CCCCC1C (stereo not shown) [Example 4, [(3-{5-[3-(methoxymethyl)-4-(2-methylpiperidin-1-yl)phenyl]-1,2,4-oxadiazol-3-yl}benzyl)oxy]acetic acid, hydrochloride salt]",8.98,4.76e-10 M,6.50,,,7.53e-07 M,
"COCc1cc(-c2nc(-c3cccc(CC(=O)NCC(=O)OC)c3)no2)ccc1-c1ccccc1C [Example 24, methyl N-[(3-{5-[2-(methoxymethyl)-2′-methylbiphenyl-4-yl]-1,2,4-oxadiazol-3-yl}phenyl)acetyl]glycinate]",8.68,9.12e-10 M,,,,,
"Cc1ccccc1-c1ccc(-c2nc(-c3cccc(COCC(=O)O)c3)no2)cc1C(F)(F)F [Example 48, [(3-{5-[2′-methyl-2-(trifluoromethyl)biphenyl-4-yl]-1,2,4-oxadiazol-3-yl}benzyl)oxy]acetic acid]",,9.79e-10 M,,8.15,1.97e-09 M,1.08e-06 M,6.03e-07 M
"COCc1cc(-c2nc(-c3ccc(OCCO)cc3)no2)ccc1-c1ccccc1C [Example 23, 2-(4-{5-[2-(methoxymethyl)-2′-methylbiphenyl-4-yl]-1,2,4-oxadiazol-3-yl}phenoxy)ethanol]",8.15,2.17e-09 M,6.70,,,,
COCc1cc(-c2nc(-c3cc(F)cc(CN(C)CC(=O)O)c3)no2)ccc1-c1ccccc1 [Example 76],,1.81e-10 M,,8.27,,,1.09e-08 M
"COCc1cc(-c2nc(-c3ccc(CNCC(=O)O)cc3C)no2)ccc1-c1ccccc1C [Example 106, 2-(4-(5-(2-(methoxymethyl)-2′-methylbiphenyl-4-yl)-1,2,4-oxadiazol-3-yl)-3-methylbenzylamino)acetic acid]",,,,8.39,4.66e-10 M,2.96e-07 M,1.59e-07 M
"COCc1cc(-c2nc(-c3ccc(F)c(CN(C)CCC(=O)O)c3)no2)ccc1N1CCCCC1C (stereo not drawn) [Example 19, N-(2-fluoro-5-{5-[3-(methoxymethyl)-4-(2-methylpiperidin-1-yl)phenyl]-1,2,4-oxadiazol-3-yl}benzyl)-N-methyl-beta-alanine, dihydrochloride salt]",9.26,1.94e-10 M,7.46,,,,
"COCc1cc(-c2nc(-c3cc(F)c(C(=O)NCCC(=O)O)cc3F)no2)ccc1-c1ccccc1C [Example 47, N-(2,5-difluoro-4-{5-[2-(methoxymethyl)-2′-methylbiphenyl-4-yl]-1,2,4-oxadiazol-3-yl}benzoyl)-beta-alanine]",,8.5e-10 M,,7.69,,5.2e-07 M,4.03e-07 M
"COCc1cc(-c2nc(-c3ccc(CN(C)CC(=O)O)c(F)c3)no2)ccc1-c1ccccc1C [Example 52, N-(2-fluoro-4-{5-[2-(methoxymethyl)-2′-methylbiphenyl-4-yl]-1,2,4-oxadiazol-3-yl}benzyl)-N-methylglycine, hydrochloride salt]",,1.96e-10 M,,8.60,,,1.27e-07 M
